Assay results: patent publication US20120316105A1, “Polymyxin Derivates Useful As Antibacterial Agents” (priority 2011, published 2012)
Bridge positions count the residues as written; N and C are the ends. Square brackets hold non-standard residues; d marks the D form. Peptide text beside a SMILES is read from it. * marks the point of attachment. Benzoyl(3-Ph) = O=C(c1cccc(-c2ccccc2)c1)*; Quinoline3carbonyl = O=C(c1cnc2ccccc2c1)*; X9 = N#Cc1ccc(-c2cc(C(=O)*)ccc2F)nc1; X29 = COc1cc(C(=O)*)cc(-c2ccccc2)c1; X34 = COc1ccc(-c2cc(C(=O)*)ccn2)cc1; X15 = O=C(c1cccc(-c2cccc(F)c2)c1)*; X6 = O=C(c1cccc(-c2ccc(F)cc2)c1)*; X11 = Cc1ccccc1-c1cccc(C(=O)*)c1; Dab = NCC[C@H](N)C(=O)O; Dap = NC[C@H](N)C(=O)O

How the values were obtained:
[1] = tested on: AB-1649, polymyxin-resistant clinical isolate of Acinetobacter baumannii; format: cell-based; conditions: AB-1649, polymyxin-resistant clinical isolate of
Protocol: (§1) Minimum bactericidal concentration (MBC, mg/L), minimum inhibitory concentration (MIC, mg/L), and human renal proximal tubule epithelial cell line cytotoxicity concentration 50% (hRPTEC, TC50, micromolar) for compounds of Formula I are listed in Table 2. The compounds of Formula I were tested as the corresponding trifluoroacetate salt except for Example 1 which was tested as the sulfate salt. For Table 2 below: PMB=polymyxin B as the sulfate salt (Bedford Laboratories, pharmaceutical grade); PMB1=polymyxin B1 as the trifluoroacetate salt; Nona=polymyxin B nonapeptide as the trifluoroacetate salt. PMB1 and Nona were prepared using the solid phase methodology described in the experimental section herein.
(§2) The in vitro antibacterial activity of compounds of Formula I was evaluated by MIC testing according to Clinical and Laboratory Standards Institute (CLSI). See: Clinical and Laboratory Standards Institute. Methods for Dilution Antimicrobial Susceptibility Tests for Bacteria that Grow Aerobically; Approved Standard-Eighth Edition. CLSI document M7-A8 [ISBN 1-56238-689-1]. Clinical and Laboratory Standards Institute, 940 West Valley Road, Suite 1400, Wayne, Pa. 19087-1898 USA, 2006; also Clinical and Laboratory Standards Institute. Performance Standards for Antimicrobial Susceptibility Testing; Twentieth Informational Supplement. CLSI document M100-S20 [ISBN 1-56238-716-2]. Clinical and Laboratory Standards Institute. Methods for Determining Bactericidal Activity of Antimicrobial Agents; Approved Guideline. CLSI document M26-A (ISBN 1-56238-384-1). CLSI, 940 West Valley Road, Suite 1400, Wayne, Pa. 19087-1898 USA, 1999.
AB-1649 is a polymyxin-resistant clinical isolate of Acinetobacter baumannii obtained from JMI labs (www.jmilabs.com);

[2] = tested on: EC-1, mouse virulent strain of Escherichia coli; format: cell-based; conditions: E. coli EC-1; overnight incubation, lower of duplicate values; trifluoroacetate salt (Example 1 and PMB sulfate)
Protocol: as §1, §2
(§3) The MIC determination is a standard laboratory method for evaluating the antibacterial activity of a compound. The MIC represents the lowest drug concentration that inhibits visible growth of bacteria following overnight incubation. […] Typically, the drug concentration range is broken down into 2-fold increments (e.g. 0.06 mg/L, 0.12 mg/L, 0.25 mg/L, 0.50 mg/L, 1.0 mg/L, etc.) and the various drug concentrations are all individually incubated overnight with approximately the same number of bacteria. The MIC is then determined by visually inspecting the drug effect at each concentration, and identifying the lowest drug concentration that has inhibited bacterial growth as compared to the drug free control. Typically, bacteria continue to grow at drug concentrations lower than the MIC and don't grow at concentrations at and above the MIC.
(§4) The MIC values described in Table 2 below were derived from assays wherein each test compound was evaluated in duplicate. In cases where the duplicate values varied by 0-2-fold, the lower of the two values was reported below. Generally speaking, if the duplicate values varied by more than 2-fold, the assay was considered non-valid and was repeated until the variation between duplicate runs was ≦2-fold. In line with the CLSI guidelines referred to above, both control organisms and reference compounds were utilized in each MIC assay to provide proper quality control. MIC values generated with these control organisms and reference compounds were required to fall within a defined range for the assay to be considered valid and be included herein. Those skilled in the art will recognize that MIC values can and do vary from experiment to experiment. Generally speaking, it should be recognized that MIC values often vary +/−2-fold from experiment to experiment. While a single MIC is reported for each compound and each microorganism, the reader should not conclude that each compound was only tested once. Several of the compounds were subjected to multiple tests. The data reported in Table 2 is reflective of the compounds relative activity and different MICs may have been generated on these occasions in line with the guidelines described above.
The following bacterial strains were used in these MIC determinations:
EC-1 is a mouse virulent strain of Escherichia coli.

[3] = tested on: AB-1649, polymyxin-resistant clinical isolate of Acinetobacter baumannii; format: cell-based; conditions: AB-1649, polymyxin-resistant clinical isolate of; remark: listed apart in the source
Protocol: as §1, §2, §3, §4
(§5) The following bacterial strains were used in these MIC determinations: […]

[4] = tested on: PA-1646, polymyxin-resistant clinical isolate of Pseudomonas aeruginosa; format: cell-based; conditions: PA-1646, polymyxin-resistant clinical isolate of
Protocol: as §1, §2, §3, §4, §5

[5] = tested on: AB-3167, clinical isolate of Acinetobacter baumannii; format: cell-based; conditions: AB-3167, clinical isolate of
Protocol: as §1, §2, §3, §4, §5

[6] = tested on: Pseudomonas aeruginosa strain PA01; format: cell-based; conditions: strain
Protocol: as §1, §2, §3, §4, §5

[7] = tested on: PA-1646, polymyxin-resistant clinical isolate of Pseudomonas aeruginosa; format: cell-based; conditions: PA-1646, polymyxin-resistant clinical isolate of; remark: listed apart in the source
Protocol: as §1, §2
PA-1646 is a polymyxin-resistant clinical isolate of Pseudomonas aeruginosa obtained from JMI labs (www.jmilabs.com);

[8] = Cytotoxicity assay (LDH release), hRPTEC; format: cell-based, human; conditions: human
Protocol: as §1
Human Renal Proximal Tubule Epithelial cells (hRPTEC) were obtained from Lonza (Walkersville, Md., USA) and cultured in REGM (Renal Epithelial Cell Basal Medium supplemented with human epithelial growth factor, hydrocortisone, epinephrine, insulin, triiodothyronine, transferrin, gentamycin/amphotericin-B, and fetal bovine serum). The hRPTEC cells were seeded into 96-well plates and incubated at 37° C. in 5% CO2. Following a growth period of 72 hours, cells were treated with compounds at 100, 67, 44, 30, 20 and 13 micromolar for 24 hours at 37° C. in 5% CO2. The cell supernatant was then harvested for determination of LDH (lactate dehydrogenase) production. The Cytotoxicity Detection Kit from Roche was used for the measurement of LDH activity released from damaged cells. The Toxic Concentration 50% (TC50, micromolar) values were determined for each compound and compared to the control compounds (polymyxin B was used as a positive control and polymyxin B nonapepetide was used as negative control).

| SMILES | AB-1649 MBC [1] [µg/mL] | EC-1 MIC [2] [µg/mL] | AB-1649 MIC [3] [µg/mL] | PA-1646 MIC [4] [µg/mL] | AB-3167 MIC [5] [µg/mL] | PA01 MIC [6] [µg/mL] | PA-1646 MBC [7] [µg/mL] | CC50 at 24 h [8] [µM] |
| --- | --- | --- | --- | --- | --- | --- | --- | --- |
| COc1cc(C(=O)N[C@@H](CCN)C(=O)N[C@H](C(=O)N[C@@H](CN)C(=O)N[C@H]2CCNC(=O)[C@H]([C@@H](C)O)NC(=O)[C@H](CCN)NC(=O)[C@H](CCN)NC(=O)[C@H](CC(C)C)NC(=O)[C@@H](Cc3ccccc3)NC(=O)[C@H](CCN)NC2=O)[C@@H](C)O)cc(-c2ccccc2)c1 [Example 17] (X29-[Dab]T[Dap][Dab][Dab][dF]L[Dab][Dab]T; lactam 4-C) | 8 | 0.25 | 4 | 2 | 0.25 | 0.5 | 4 | 26 |
| CC(C)C[C@@H]1NC(=O)[C@@H](Cc2ccccc2)NC(=O)[C@H](CCN)NC(=O)[C@@H](NC(=O)[C@H](CN)NC(=O)[C@@H](NC(=O)[C@H](CCN)NC(=O)c2cccc(-c3cccc(F)c3)c2)[C@@H](C)O)CCNC(=O)[C@H]([C@@H](C)O)NC(=O)[C@H](CCN)NC(=O)[C@H](CCN)NC1=O [Example 18] (X15-[Dab]T[Dap][Dab][Dab][dF]L[Dab][Dab]T; lactam 4-C) | 2 | 0.25 | 2 | 1 | 0.5 | 1 | 1 | 22 |
| CC(C)C[C@@H]1NC(=O)[C@@H](Cc2ccccc2)NC(=O)[C@H](CCN)NC(=O)[C@@H](NC(=O)[C@H](CN)NC(=O)[C@@H](NC(=O)[C@H](CCN)NC(=O)c2cccc(-c3ccccc3)c2)[C@@H](C)O)CCNC(=O)[C@H]([C@@H](C)O)NC(=O)[C@H](CCN)NC(=O)[C@H](CCN)NC1=O [Example 19] ({Benzoyl(3-Ph)}-[Dab]T[Dap][Dab][Dab][dF]L[Dab][Dab]T; lactam 4-C) | 2 | 0.25 | 2 | 1 | 0.25 | 0.5 | 2 | 21 |
| CC(C)C[C@@H]1NC(=O)[C@@H](Cc2ccccc2)NC(=O)[C@H](CCN)NC(=O)[C@@H](NC(=O)[C@H](CN)NC(=O)[C@@H](NC(=O)[C@H](CCN)NC(=O)c2cccc(-c3ccc(F)cc3)c2)[C@@H](C)O)CCNC(=O)[C@H]([C@@H](C)O)NC(=O)[C@H](CCN)NC(=O)[C@H](CCN)NC1=O [Example 20] (X6-[Dab]T[Dap][Dab][Dab][dF]L[Dab][Dab]T; lactam 4-C) | 2 | 0.25 | 2 | 1 | 0.25 | 0.5 | 1 | 18 |
| Cc1ccccc1-c1cccc(C(=O)N[C@@H](CCN)C(=O)N[C@H](C(=O)N[C@@H](CN)C(=O)N[C@H]2CCNC(=O)[C@H]([C@@H](C)O)NC(=O)[C@H](CCN)NC(=O)[C@H](CCN)NC(=O)[C@H](CC(C)C)NC(=O)[C@@H](Cc3ccccc3)NC(=O)[C@H](CCN)NC2=O)[C@@H](C)O)c1 [Example 21] (X11-[Dab]T[Dap][Dab][Dab][dF]L[Dab][Dab]T; lactam 4-C) | 2 | 0.25 | 2 | 2 | 0.25 | 1 | 2 | 15 |
| COc1ccc(-c2cc(C(=O)N[C@@H](CCN)C(=O)N[C@H](C(=O)N[C@@H](CN)C(=O)N[C@H]3CCNC(=O)[C@H]([C@@H](C)O)NC(=O)[C@H](CCN)NC(=O)[C@H](CCN)NC(=O)[C@H](CC(C)C)NC(=O)[C@@H](Cc4ccccc4)NC(=O)[C@H](CCN)NC3=O)[C@@H](C)O)ccn2)cc1 [Example 22] (X34-[Dab]T[Dap][Dab][Dab][dF]L[Dab][Dab]T; lactam 4-C) | 2 | 0.25 | 2 | 2 | 0.25 | 0.5 | 8 | 78 |
| CC(C)C[C@@H]1NC(=O)[C@@H](Cc2ccccc2)NC(=O)[C@H](CCN)NC(=O)[C@@H](NC(=O)[C@H](CN)NC(=O)[C@@H](NC(=O)[C@H](CCN)NC(=O)c2cnc3ccccc3c2)[C@@H](C)O)CCNC(=O)[C@H]([C@@H](C)O)NC(=O)[C@H](CCN)NC(=O)[C@H](CCN)NC1=O [Example 23] (Quinoline3carbonyl-[Dab]T[Dap][Dab][Dab][dF]L[Dab][Dab]T; lactam 4-C) | 8 | 0.125 | 4 | 4 | 0.5 | 0.25 | 4 | > 100 |
| CC(C)C[C@@H]1NC(=O)[C@@H](Cc2ccccc2)NC(=O)[C@H](CCN)NC(=O)[C@@H](NC(=O)[C@H](CN)NC(=O)[C@@H](NC(=O)[C@H](CCN)NC(=O)c2ccc(F)c(-c3ccc(C#N)cn3)c2)[C@@H](C)O)CCNC(=O)[C@H]([C@@H](C)O)NC(=O)[C@H](CCN)NC(=O)[C@H](CCN)NC1=O [Example 24] (X9-[Dab]T[Dap][Dab][Dab][dF]L[Dab][Dab]T; lactam 4-C) | 8 | 0.25 | 4 | 4 | 0.5 | 1 | 16 | > 100 |
